Molecules are shown by their SMILES.

The target in experiment [1] is Glutamate receptor ionotropic, NMDA 2C (Rattus norvegicus, UniProt Q00961). Kind of experiment: Compound was tested for its binding affinity towards PCP receptor using [3H](+)-NANM in the presence of 5 uM haloperidol from rat brain.
The target of another experiment is Sigma 2 receptor. Kind of experiment: Binding affinity towards sigma 2 receptor using [3H]DTG in the presence of 200 nM (+)-NANM from guinea pig brain. The arrangement: species or system Cavia porcellus.
For experiment [2], the target named is T1, Alpha-1B adrenergic receptor (Rattus norvegicus, UniProt P15823).
T1 sequence (P15823 whole entry): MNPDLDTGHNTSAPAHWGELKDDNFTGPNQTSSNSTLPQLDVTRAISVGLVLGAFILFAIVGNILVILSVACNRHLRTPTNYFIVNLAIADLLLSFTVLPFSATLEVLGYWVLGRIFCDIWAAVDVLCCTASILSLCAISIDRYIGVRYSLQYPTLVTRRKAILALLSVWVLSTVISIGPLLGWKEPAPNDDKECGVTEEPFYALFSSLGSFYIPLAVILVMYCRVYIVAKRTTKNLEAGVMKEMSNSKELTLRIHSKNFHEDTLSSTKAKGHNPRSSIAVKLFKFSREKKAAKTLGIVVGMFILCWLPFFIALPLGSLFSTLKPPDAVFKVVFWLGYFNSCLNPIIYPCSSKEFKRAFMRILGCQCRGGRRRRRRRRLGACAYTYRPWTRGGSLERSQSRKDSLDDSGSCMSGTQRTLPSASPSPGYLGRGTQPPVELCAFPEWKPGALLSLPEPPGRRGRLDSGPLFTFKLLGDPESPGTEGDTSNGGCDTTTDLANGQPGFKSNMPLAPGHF
Kind of experiment: Compound was tested for its binding affinity towards Alpha-1B adrenergic receptor using [3H]prazosin from rat liver.

Experiment [3] has as its target Serotonin 2 (5-HT2) receptor. Nature of the experiment: Compound was tested for its binding affinity towards 5-hydroxytryptamine 2 receptor using [3H]ketanserin from guinea pig frontal cortex. It counts as tissue-based, Cavia porcellus.
A further experiment has as its target D(2) dopamine receptor (Rattus norvegicus, UniProt P61169). Kind of experiment: Compound was tested for its binding affinity towards Dopamine receptor D2 using [3H]spiperone from rat striatum.
For another experiment, the target named is Opioid receptor (Rattus norvegicus, UniProt P33533+P34975+P33535). Kind of experiment: Compound was tested for its binding affinity towards Opioid receptors using [3H]naloxone from rat whole brain.
The target in experiment [4] is T2, Muscarinic acetylcholine receptor M2 (Rattus norvegicus, UniProt P10980).
T2 sequence (P10980 whole entry): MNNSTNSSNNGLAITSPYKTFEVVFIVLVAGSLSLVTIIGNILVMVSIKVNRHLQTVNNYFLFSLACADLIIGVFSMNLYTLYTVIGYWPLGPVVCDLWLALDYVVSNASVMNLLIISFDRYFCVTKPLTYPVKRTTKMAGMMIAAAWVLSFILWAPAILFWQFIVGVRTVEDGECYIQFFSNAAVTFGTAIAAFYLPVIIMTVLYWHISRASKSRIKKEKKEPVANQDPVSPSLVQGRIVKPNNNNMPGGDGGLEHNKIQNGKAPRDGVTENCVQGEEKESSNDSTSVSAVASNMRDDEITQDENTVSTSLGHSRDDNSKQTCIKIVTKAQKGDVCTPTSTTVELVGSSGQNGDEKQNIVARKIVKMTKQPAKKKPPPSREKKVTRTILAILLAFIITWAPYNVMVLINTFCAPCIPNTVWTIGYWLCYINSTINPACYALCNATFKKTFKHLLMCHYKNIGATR
Nature of the experiment: Compound was tested for its binding affinity towards Muscarinic acetylcholine receptor M2 using [3H]NMS from rat heart.

For experiment [5], the target named is T3, Alpha-1A adrenergic receptor (Rattus norvegicus, UniProt P43140).
T3 sequence (P43140 whole entry): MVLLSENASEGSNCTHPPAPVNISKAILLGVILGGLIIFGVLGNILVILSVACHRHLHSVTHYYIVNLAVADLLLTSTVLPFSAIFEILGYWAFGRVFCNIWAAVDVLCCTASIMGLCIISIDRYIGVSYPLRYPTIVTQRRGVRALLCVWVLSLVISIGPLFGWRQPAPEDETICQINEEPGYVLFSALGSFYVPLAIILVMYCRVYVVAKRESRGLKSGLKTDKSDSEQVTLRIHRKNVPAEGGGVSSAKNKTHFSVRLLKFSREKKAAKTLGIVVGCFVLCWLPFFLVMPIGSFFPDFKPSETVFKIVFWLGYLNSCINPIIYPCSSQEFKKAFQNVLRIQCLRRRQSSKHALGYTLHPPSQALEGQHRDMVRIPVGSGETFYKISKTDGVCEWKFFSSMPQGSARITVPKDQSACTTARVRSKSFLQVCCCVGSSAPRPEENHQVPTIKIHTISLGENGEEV
Nature of the experiment: Compound was tested for its binding affinity towards Alpha-1A adrenergic receptor using [3H]prazosin from rat submaxillary gland.

Experiment [6] concerns the target Muscarinic acetylcholine receptor M3 (Rattus norvegicus, UniProt P08483). Nature of the experiment: Compound was tested for its binding affinity towards Muscarinic acetylcholine receptor M3 using [3H]NMS from rat submaxillary gland.

Sequence of Glutamate receptor ionotropic, NMDA 2C (Q00961 whole entry): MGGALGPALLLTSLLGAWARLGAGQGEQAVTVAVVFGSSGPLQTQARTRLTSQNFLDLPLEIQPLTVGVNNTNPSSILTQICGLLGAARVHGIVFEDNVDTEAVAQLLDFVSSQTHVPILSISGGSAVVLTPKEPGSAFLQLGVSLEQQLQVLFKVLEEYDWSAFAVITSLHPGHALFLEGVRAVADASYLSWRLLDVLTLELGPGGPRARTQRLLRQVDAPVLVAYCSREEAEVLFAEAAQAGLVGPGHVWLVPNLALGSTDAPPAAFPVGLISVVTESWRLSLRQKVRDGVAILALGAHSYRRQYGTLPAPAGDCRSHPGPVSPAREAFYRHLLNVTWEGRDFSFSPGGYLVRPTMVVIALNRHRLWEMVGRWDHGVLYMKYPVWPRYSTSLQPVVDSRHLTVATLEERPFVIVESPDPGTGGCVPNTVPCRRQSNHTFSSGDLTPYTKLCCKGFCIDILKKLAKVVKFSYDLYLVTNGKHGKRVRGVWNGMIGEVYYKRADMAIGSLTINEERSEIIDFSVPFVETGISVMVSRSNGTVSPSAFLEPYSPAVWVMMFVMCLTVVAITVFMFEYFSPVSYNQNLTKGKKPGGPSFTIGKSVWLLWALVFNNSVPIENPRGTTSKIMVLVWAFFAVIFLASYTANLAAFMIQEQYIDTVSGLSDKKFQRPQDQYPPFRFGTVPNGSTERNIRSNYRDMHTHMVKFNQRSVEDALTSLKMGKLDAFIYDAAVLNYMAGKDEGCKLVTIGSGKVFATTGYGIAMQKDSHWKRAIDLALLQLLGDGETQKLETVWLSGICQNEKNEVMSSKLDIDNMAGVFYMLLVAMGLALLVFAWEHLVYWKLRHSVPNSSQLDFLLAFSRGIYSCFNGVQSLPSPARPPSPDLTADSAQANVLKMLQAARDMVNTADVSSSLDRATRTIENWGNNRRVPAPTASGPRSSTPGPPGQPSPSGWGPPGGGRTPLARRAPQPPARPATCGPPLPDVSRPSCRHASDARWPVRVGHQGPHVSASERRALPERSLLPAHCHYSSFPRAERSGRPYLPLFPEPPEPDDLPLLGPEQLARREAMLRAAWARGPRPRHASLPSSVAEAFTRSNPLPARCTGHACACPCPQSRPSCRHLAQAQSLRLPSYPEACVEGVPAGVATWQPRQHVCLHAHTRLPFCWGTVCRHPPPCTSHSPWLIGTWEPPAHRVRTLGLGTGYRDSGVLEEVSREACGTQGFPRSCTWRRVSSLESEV
Sequence of D(2) dopamine receptor (P61169 whole entry): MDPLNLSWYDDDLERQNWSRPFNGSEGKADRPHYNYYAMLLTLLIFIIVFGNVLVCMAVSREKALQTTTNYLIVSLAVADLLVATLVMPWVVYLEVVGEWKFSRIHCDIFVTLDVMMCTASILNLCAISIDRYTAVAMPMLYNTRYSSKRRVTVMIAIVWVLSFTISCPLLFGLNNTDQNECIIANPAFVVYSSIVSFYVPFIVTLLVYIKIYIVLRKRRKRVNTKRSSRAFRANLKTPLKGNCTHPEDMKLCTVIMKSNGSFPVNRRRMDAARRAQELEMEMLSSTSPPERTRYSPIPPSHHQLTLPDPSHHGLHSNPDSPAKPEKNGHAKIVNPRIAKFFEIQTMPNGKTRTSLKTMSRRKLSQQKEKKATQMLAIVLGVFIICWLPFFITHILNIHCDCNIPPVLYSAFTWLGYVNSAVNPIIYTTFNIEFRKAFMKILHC
Sequence of Muscarinic acetylcholine receptor M3 (P08483 whole entry): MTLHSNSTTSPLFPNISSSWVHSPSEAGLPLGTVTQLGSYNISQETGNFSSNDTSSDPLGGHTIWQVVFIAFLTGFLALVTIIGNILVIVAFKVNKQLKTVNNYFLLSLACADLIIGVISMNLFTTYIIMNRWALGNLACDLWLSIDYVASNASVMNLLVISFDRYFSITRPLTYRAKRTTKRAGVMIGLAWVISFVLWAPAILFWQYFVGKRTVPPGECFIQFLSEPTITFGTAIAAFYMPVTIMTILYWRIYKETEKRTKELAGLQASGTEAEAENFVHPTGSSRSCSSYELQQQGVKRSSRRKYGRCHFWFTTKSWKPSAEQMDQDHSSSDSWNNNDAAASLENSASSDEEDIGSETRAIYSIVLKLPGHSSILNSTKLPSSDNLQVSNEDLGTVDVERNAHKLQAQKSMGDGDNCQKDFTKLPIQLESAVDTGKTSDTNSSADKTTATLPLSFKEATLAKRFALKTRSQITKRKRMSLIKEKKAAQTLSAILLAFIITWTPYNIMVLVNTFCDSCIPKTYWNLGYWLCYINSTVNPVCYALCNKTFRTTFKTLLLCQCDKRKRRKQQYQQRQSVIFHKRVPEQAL

The Ki is a dissociation constant, usually derived from enzyme kinetics or from competition with a known ligand. With `c1ccc(CN2CCC3(CCc4ccccc4O3)CC2)cc1`, the inhibition constant Ki is > 10 µM in experiment [1]; 0.022 µM at Sigma 2 receptor; > 10 µM in experiment [2]; > 10 µM in experiment [3]; > 10 µM at D(2) dopamine receptor; > 10 µM on Opioid receptor. The Ki in [4], in [5] and in experiment [6] was > 10 µM in each case.
Take `CN1CCN(C2=Nc3cc(Cl)ccc3Nc3ccccc32)CC1` [CLOZAPINE]: at Sigma 2 receptor, the Ki was > 10 µM.
For `O=S1(=O)c2ccccc2CCC12CCN(Cc1ccccc1)CC2`, the Ki in experiment [1] was > 10 µM; at Sigma 2 receptor, 1.8 µM; in [2], > 10 µM; in experiment [3], > 10 µM; at D(2) dopamine receptor, > 10 µM; on Opioid receptor it was > 10 µM. The Ki in experiment [4], in experiment [5] and in experiment [6] was > 10 µM in each case.
As to `[O-][S+]1c2ccccc2CCC12CCN(Cc1ccccc1)CC2` (stereo unspecified), the Ki in [1] was > 10 µM; on Sigma 2 receptor it was 1.7 µM; in experiment [2], > 10 µM; in experiment [3], > 10 µM; at D(2) dopamine receptor, > 10 µM; at Opioid receptor it was > 10 µM. Moreover, the Ki in experiment [4], in [5] and in experiment [6] was > 10 µM in each case.
In experiment [6], `COc1ccccc1CNCCCCCCNCCCCCCCCNCCCCCCNCc1ccccc1OC` [METHOCTRAMINE] yielded a Ki of 0.998 µM.
`c1ccc(CN2CCC3(CCc4ccccc4S3)CC2)cc1`: the Ki in [1] is > 10 µM; on Sigma 2 receptor, 0.416 µM; in experiment [2] it was > 10 µM; in experiment [3] it was 7.6 µM; on D(2) dopamine receptor, 10.4 µM; at Opioid receptor, > 10 µM. In addition, the Ki is 10.8 µM in [4], > 10 µM in experiment [5] and > 10 µM in experiment [6].
Regarding `O=C1c2ccccc2CCC12CCN(Cc1ccccc1)CC2`, the Ki in [1] is > 10 µM; on Sigma 2 receptor, 0.01 µM; in experiment [2] it was > 10 µM; in experiment [3], 0.218 µM; on Opioid receptor, > 10 µM; in [4], 2.7 µM. Moreover, the Ki in [5] and in [6] was > 10 µM in each case.

Source of the values: ChEMBL document CHEMBL1131209 (J Med Chem, 1998).
